molecular target: T1, Recombinant human cathepsin A (Homo sapiens, UniProt P10619); assay: Cathepsin A inhibitory activity; format: biochemical; details: pharmacological test "Cathepsin A inhibitory activity"; IC50 given as class A/B/C; read-out: Activity (2): Cathepsin A inhibitory activity, IC50 class
T1 construct: Recombinant human cathepsin A (residues 29-480, with a C-terminal 10-His tag); 10-His (C); purchased R&D Systems 1049-SE
T1 sequence (P10619 29-312 limits assumed): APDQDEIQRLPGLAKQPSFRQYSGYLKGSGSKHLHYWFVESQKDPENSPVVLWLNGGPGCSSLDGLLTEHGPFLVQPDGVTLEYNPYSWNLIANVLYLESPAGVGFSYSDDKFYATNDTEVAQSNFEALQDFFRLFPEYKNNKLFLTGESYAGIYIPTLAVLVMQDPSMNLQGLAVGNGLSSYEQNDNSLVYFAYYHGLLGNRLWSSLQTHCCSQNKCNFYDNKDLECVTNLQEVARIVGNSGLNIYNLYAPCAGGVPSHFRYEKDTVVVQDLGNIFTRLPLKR
T1 sequence (P10619 327-480 limits assumed): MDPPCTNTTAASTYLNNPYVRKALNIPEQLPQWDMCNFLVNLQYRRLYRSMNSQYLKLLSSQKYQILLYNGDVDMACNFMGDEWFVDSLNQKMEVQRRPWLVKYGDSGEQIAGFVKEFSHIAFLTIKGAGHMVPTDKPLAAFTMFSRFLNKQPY
Procedure: a) Cathepsin A Inhibitory Activity
Recombinant human cathepsin A (residues 29-480, with a C-terminal 10-His tag; R&D Systems, #1049-SE) was proteolytically activated with recombinant human cathepsin L (R&D Systems, #952-CY). Briefly, cathepsin A was incubated at 10 μg/ml with cathepsin L at 1 μg/ml in activation buffer (25 mM 2-(morpholin-4-yl)-ethanesulfonic acid (MES), pH 6.0, containing 5 mM dithiothreitol (DTT)) for 15 min at 37° C. Cathepsin L activity was then stopped by the addition of the cysteine protease inhibitor E-64 (N-(trans-epoxysuccinyl)-L-leucine-4-guanidinobutylamide; Sigma-Aldrich, #E3132; dissolved in activation buffer/DMSO) to a final concentration of 10 μM.
The activated cathepsin A was diluted in assay buffer (25 mM MES, pH 5.5, containing 5 mM DTT) and mixed with the test compound (dissolved in assay buffer containing (v/v) 3% DMSO) or, in the control experiments, with the vehicle in a multiple assay plate. After incubation for 15 min at room temperature, as substrate then bradykinin carrying an N-terminal®Bodipy FL (4,4-difluoro-5,7-dimethyl-4-bora-3a,4a-diaza-s-indacene-3-propionyl) label (JPT Peptide Technologies GmbH; dissolved in assay buffer) was added to the mixture. The final concentration of cathepsin A was 833 ng/ml and the final concentration of labeled bradykinin 2 μM. After incubation for 15 min at room temperature the reaction was stopped by the addition of stop buffer (130 mM 2-(4-(2-hydroxy-ethyl)-piperazin-1-yl)-ethanesulfonic acid, pH 7.4, containing (v/v) 0.013% Triton X-100, 0.13% Coating Reagent 3 (Caliper Life Sciences), 6.5% DMSO and 20 μM ebelactone B (Sigma, # E0886)).
Uncleaved substrate and product were then separated by a microfluidic capillary electrophoresis on a LabChip® 3000 Drug Discovery System (12-Sipper-Chip; Caliper Life Sciences) and quantified by determination of the respective peak areas. Substrate turnover was calculated by dividing product peak area by the sum of substrate and product peak areas, and the enzyme activity and the inhibitory effect of the test compound thus quantified. From the percentage of inhibition of cathepsin A activity observed with the test compound at several concentrations, the inhibitory concentration IC50, i.e. the concentration which effects 50% inhibition of enzyme activity was, calculated.

SMILES | IC50
Cc1ccccc1[C@H](CC(=O)O)NC(=O)c1cc(O)n(-c2nccc(C(F)(F)F)n2)n1 [Example 138] | 1000 to 30000 nM
COc1ccc([C@H](CC(=O)O)NC(=O)c2cc(O)n(-c3ccccc3Cl)n2)cn1 [Example 139] | 100 to 1000 nM
O=C(O)C[C@H](NC(=O)c1cc(O)n(-c2ccccc2F)n1)c1cccnc1 [Example 140] | 100 to 1000 nM
Cc1ccccc1[C@H](CC(=O)O)NC(=O)c1cc(O)n(-c2ccncc2)n1 [Example 141] | 1000 to 30000 nM
Cc1cc(F)ccc1C(CC(=O)O)NC(=O)c1cc(O)n(-c2ccccc2Cl)n1 (centres unmarked) [Example 142] | 100 to 1000 nM
Cc1ccccc1[C@H](CC(=O)O)NC(=O)c1cc(O)n(-c2cccnc2)n1 [Example 143] | 1000 to 30000 nM
COc1ccc([C@H](CC(=O)O)NC(=O)c2cc(O)n(-c3ccccc3)n2)cn1 [Example 144] | 100 to 1000 nM
O=C(O)C[C@H](NC(=O)c1cc(O)n(-c2ccccc2Cl)n1)c1cccnc1 [Example 145] | 100 to 1000 nM
O=C(O)C[C@H](NC(=O)c1cc(O)n(-c2ccccc2F)n1)c1ccc(-c2ccc(F)cc2)cc1 [Example 146] | 1000 to 30000 nM
O=C(O)C[C@@H](NC(=O)c1cc(O)n(-c2ccccc2F)n1)c1ccc(-c2ccc(F)cc2)cc1 [Example 147] | < 100 nM
O=C(O)C[C@H](NC(=O)c1cc(O)n(-c2ccccc2Cl)n1)c1ccc(-c2ccc(F)cc2)cc1 [Example 148] | 1000 to 30000 nM
O=C(O)C[C@@H](NC(=O)c1cc(O)n(-c2ccccc2Cl)n1)c1ccc(-c2ccc(F)cc2)cc1 [Example 149] | < 100 nM
O=C(O)CC(NC(=O)c1cc(O)n(-c2ccccc2F)n1)c1ccc(-c2ccccc2)cc1 (centres unmarked) [Example 150] | < 100 nM
O=C(O)CC(NC(=O)c1cc(O)n(-c2ccncc2)n1)c1ccc(-c2ccccc2)cc1 (centres unmarked) [Example 151] | 1000 to 30000 nM
COc1cccc(-c2ccc(C(CC(=O)O)NC(=O)c3cc(O)n(-c4ccccc4F)n3)cc2)c1 (centres unmarked) [Example 156] | 100 to 1000 nM
COc1cccc(-c2ccc(C(CC(=O)O)NC(=O)c3cc(O)n(-c4ccccc4Cl)n3)cc2)c1 (centres unmarked) [Example 157] | 100 to 1000 nM

SMILES | IC50
O=C(O)CC(NC(=O)c1cc(O)n(-c2ccccc2)n1)c1cccc2c1OCO2 (centres unmarked) [Example 158] | 100 to 1000 nM
O=C(O)C[C@H](NC(=O)c1cc(O)n(-c2ccccc2)n1)c1ccccc1Br [Example 159] | 100 to 1000 nM
N#Cc1cccc([C@H](CC(=O)O)NC(=O)c2cc(O)n(-c3ccccc3)n2)c1 [Example 160] | 1000 to 30000 nM
COc1ccc(C(CC(=O)O)NC(=O)c2cc(O)n(-c3ccccc3)n2)c(OC)c1 (centres unmarked) [Example 161] | 1000 to 30000 nM
COc1ccc(C(CC(=O)O)NC(=O)c2cc(O)n(-c3ccccc3)n2)c(Cl)c1 (centres unmarked) [Example 162] | 100 to 1000 nM
O=C(O)C[C@H](NC(=O)c1cc(O)n(-c2ccccc2)n1)c1ccc(F)cc1 [Example 163] | 100 to 1000 nM
O=C(O)C[C@H](NC(=O)c1cc(O)n(-c2ccccc2)n1)c1cccc(Cl)c1Cl [Example 164] | < 100 nM
COc1cccc([C@H](CC(=O)O)NC(=O)c2cc(O)n(-c3ccccc3)n2)c1 [Example 165] | 1000 to 30000 nM
O=C(O)C[C@H](NC(=O)c1cc(O)n(-c2ccccc2)n1)c1cccc(F)c1 [Example 166] | 1000 to 30000 nM
O=C(O)C[C@H](NC(=O)c1cc(O)n(-c2ccccc2)n1)c1cccc(Cl)c1 [Example 167] | 100 to 1000 nM
O=C(O)CC(NC(=O)c1cc(O)n(-c2ccccc2)n1)c1cccc(Cl)c1Cl (centres unmarked) [Example 168] | 100 to 1000 nM
COc1ccccc1[C@@H](NC(=O)c1cc(O)n(-c2ccccc2)n1)[C@@H](O)C(=O)O [Example 169] | 1000 to 30000 nM
COc1cccc([C@H](CC(=O)O)NC(=O)c2cc(O)n(-c3ccccc3)n2)c1OC [Example 170] | 100 to 1000 nM
O=C(O)CC(NC(=O)c1cc(O)n(-c2ccccc2)n1)c1ccc(-c2cccc(F)c2)cc1 (centres unmarked) [Example 171] | 100 to 1000 nM
O=C(O)CC(NC(=O)c1cc(O)n(-c2ccccc2)n1)c1cccc(Cl)c1F (centres unmarked) [Example 172] | 100 to 1000 nM

same assay, conditions: read-out: Activity (2): Cathepsin A inhibitory activity, IC50 class

SMILES | IC50
COc1ccccc1[C@H](CC(=O)O)NC(=O)c1cc(O)n(-c2ccccc2Cl)n1 [Example 111] | 100 to 1000 nM
N#Cc1ccc([C@H](CC(=O)O)NC(=O)c2cc(O)n(-c3ccccc3Cl)n2)cc1 [Example 112] | 100 to 1000 nM
O=C(O)CC(NC(=O)c1cc(O)n(-c2ccccc2Cl)n1)c1ccc(Oc2ccccc2)cc1 (centres unmarked) [Example 113] | 100 to 1000 nM
O=C(O)C[C@H](NC(=O)c1cc(O)n(-c2ccccc2Cl)n1)c1c(F)cccc1F [Example 114] | 100 to 1000 nM
O=C(O)CC(NC(=O)c1cc(O)n(-c2ccccc2Cl)n1)c1ccc(-c2ccc(F)cc2)cc1 (centres unmarked) [Example 115] | < 100 nM
O=C(O)CC(NC(=O)c1cc(O)n(-c2ccccc2Cl)n1)c1ccc(-n2ccnc2)cc1 (centres unmarked) [Example 116] | 1000 to 30000 nM
O=C(O)C[C@H](NC(=O)c1cc(O)n(-c2ccccc2F)n1)c1ccc(Cl)cc1Cl [Example 117] | 100 to 1000 nM
O=C(O)C[C@H](NC(=O)c1cc(O)n(-c2ccccc2F)n1)c1ccccc1F [Example 118] | 100 to 1000 nM
O=C(O)C[C@H](NC(=O)c1cc(O)n(-c2ccccc2F)n1)c1ccccc1C(F)(F)F [Example 119] | 100 to 1000 nM
O=C(O)C[C@H](NC(=O)c1cc(O)n(-c2ccccc2F)n1)c1ccc(Cl)cc1 [Example 120] | 100 to 1000 nM
O=C(O)C[C@H](NC(=O)c1cc(O)n(-c2ccccc2F)n1)c1ccc(C(F)(F)F)cc1 [Example 121] | 100 to 1000 nM
COc1ccccc1[C@H](CC(=O)O)NC(=O)c1cc(O)n(-c2ccccc2F)n1 [Example 122] | 100 to 1000 nM
N#Cc1ccc([C@H](CC(=O)O)NC(=O)c2cc(O)n(-c3ccccc3F)n2)cc1 [Example 123] | 100 to 1000 nM
O=C(O)CC(NC(=O)c1cc(O)n(-c2ccccc2F)n1)c1ccc(Oc2ccccc2)cc1 (centres unmarked) [Example 124] | 100 to 1000 nM
O=C(O)C[C@H](NC(=O)c1cc(O)n(-c2ccccc2F)n1)c1c(F)cccc1F [Example 125] | 100 to 1000 nM
O=C(O)CC(NC(=O)c1cc(O)n(-c2ccccc2F)n1)c1ccc(-c2ccc(F)cc2)cc1 (centres unmarked) [Example 126] | < 100 nM
O=C(O)CC(NC(=O)c1cc(O)n(-c2ccccc2F)n1)c1ccc(-n2ccnc2)cc1 (centres unmarked) [Example 127] | 1000 to 30000 nM
COc1cc(C(=O)N[C@@H](CC(=O)O)c2ccccc2C)nn1-c1ccccc1F [Example 129, (S)-3-{[1-(2-Fluoro-phenyl)-5-methoxy-1H-pyrazole-3-carbonyl]-amino}-3-o-tolyl-propionic acid] | < 100 nM
Cc1ccccc1[C@H](CC(=O)O)NC(=O)c1cc(O)n(-c2ccc(Cl)cn2)n1 [Example 130] | 1000 to 30000 nM
Cc1ccccc1[C@H](CC(=O)O)NC(=O)c1cc(O)n(-c2ccnc(Cl)c2)n1 [Example 131] | 100 to 1000 nM
COc1ccc(C(CC(=O)O)NC(=O)c2cc(O)n(-c3ccccc3Cl)n2)c(F)c1 (centres unmarked) [Example 132] | 100 to 1000 nM
COc1ccc(C(CC(=O)O)NC(=O)c2cc(O)n(-c3ccccc3F)n2)c(F)c1 (centres unmarked) [Example 133] | 100 to 1000 nM
CCc1ccc(C(CC(=O)O)NC(=O)c2cc(O)n(-c3ccccc3F)n2)cc1 (centres unmarked) [Example 134] | 100 to 1000 nM
Cc1ccc([C@H](CC(=O)O)NC(=O)c2cc(O)n(-c3ccccc3Cl)n2)cc1 [Example 135, (S)-3-{[1-(2-Chloro-phenyl)-5-hydroxy-1H-pyrazole-3-carbonyl]-amino}-3-p-tolyl-propionic acid] | 100 to 1000 nM
COc1ccc([C@H](CC(=O)O)NC(=O)c2cc(O)n(-c3ccccc3F)n2)cn1 [Example 136] | 100 to 1000 nM
O=C(O)C[C@H](NC(=O)c1cc(O)n(-c2ccccc2)n1)c1cccnc1 [Example 137] | 100 to 1000 nM

same assay, conditions: recombinant human cathepsin A 833 ng/ml, Bodipy FL-labeled bradykinin 2 μM, pH 5.5; read-out: CATH-A IC50

SMILES | IC50
COc1cc(C(=O)N[C@@H](CC(=O)O)c2ccccc2C)nn1-c1ccccc1F [Example 129, (S)-3-{[1-(2-Fluoro-phenyl)-5-methoxy-1H-pyrazole-3-carbonyl]-amino}-3-o-tolyl-propionic acid] | 41.2 nM
Cc1ccc([C@H](CC(=O)O)NC(=O)c2cc(O)n(-c3ccccc3Cl)n2)cc1 [Example 135, (S)-3-{[1-(2-Chloro-phenyl)-5-hydroxy-1H-pyrazole-3-carbonyl]-amino}-3-p-tolyl-propionic acid] | 211 nM
